Reference: patent publication US12338483B2, “Compositions and methods for logic-gated profiling of biologic activity” (Georgia Tech Research Corporation, priority 2019, dated 2025)
Bridge positions count the residues as written; N and C are the ends. Square brackets hold non-standard residues; d marks the D form. Ends that are not written are not given here.

Key:
[1] = target: T1, GzmB and Tobacco Etch Virus protease (Homo sapiens, UniProt P10144); experiment: Incubation of GzmB/MMP AND-gate sensor with GzmB and Tobacco Etch Virus protease; format: biochemical; details: sensor 5 μM; 300 nM GzmB and 100 nM protease; 1.5 hours; FIG. 21
T1 construct: Tobacco Etch Virus protease
T1 sequence (P10144 21-247): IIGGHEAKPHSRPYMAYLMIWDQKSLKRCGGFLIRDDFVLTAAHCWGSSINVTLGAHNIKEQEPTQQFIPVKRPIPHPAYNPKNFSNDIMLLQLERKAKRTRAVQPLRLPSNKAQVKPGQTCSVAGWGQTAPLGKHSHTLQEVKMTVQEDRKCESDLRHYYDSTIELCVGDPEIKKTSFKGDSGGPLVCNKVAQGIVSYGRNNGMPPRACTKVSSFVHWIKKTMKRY
Method: (§1) Next the protease activity sensor was incubated with GzmB and either MMP8 or one of two viral proteases (West Nile Virus NS3 protease and Tobacco Etch Virus protease) to show the AND-gate sensor can distinguish immune activity in tumors from viral infections (FIG. 21). The sensor produced low signals with the viral proteases compared to MMP8.
(§2) FIGS. 20-21 show mean change in fluorescence (7D, kinetic trace) after incubation of GzmB/MMP AND-gate sensor (5 μM) with (7C) 300 nM GzmB and/or 100 nM different MMP's or (7D) 300 nM GzmB and 100 nM West Nile Virus NS3 protease, Tobacco Etch Virus protease, or MMP8 for 1.5 hours, n=3.

GzmB and MMPs = experiment: Cleavage assay of GzmB/MMP AND-gate sensor with each MMP with and without GzmB; format: biochemical; details: sensor 5 μM; 300 nM GzmB and/or 100 nM different MMPs; 1.5 hours; all three MMPs; FIG. 20
Method: Then a cleavage assay was performed with the GzmB/MMP AND-gate sensor, testing the probe with each MMP with and without GzmB (FIG. 20).
as §2

GzmB = target: T2, GzmB (Homo sapiens, UniProt P10144) and West Nile Virus NS3 protease; experiment: Incubation of GzmB/MMP AND-gate sensor with GzmB and West Nile Virus NS3 protease; format: biochemical; details: sensor 5 μM; 300 nM GzmB and 100 nM protease; 1.5 hours; FIG. 21
T2 construct: West Nile Virus NS3 protease
T2 sequence (P10144 21-247): as above
Method: as §1, §2

GzmB and Thrb = experiment: Cleavage assay of GzmB/Thrb AND-gate sensor with GzmB and/or Thrb; format: biochemical
Method: Next, the AND-gate logic protease sensor was tested in a cleavage assay.
Thus, the presence of even small amounts of a protease can be detected if the other protease is also present. FIGS. 13-14 show: mean change in fluorescence after incubation of the AND-gate sensor with (FIG. 13) 9.2 nM Thrb and varying concentrations of GzmB (0-150 nM) or (FIG. 14) 300 nM GzmB and varying concentrations of Thrb (0-4.6 nM) for 2 hours, n=2. For all fluorescent readings, samples were excited at 485 nm, emission was measured at 528 nm, and samples were incubated at 37° C.

[2] = target: T3, GzmB in supernatant of OT1 T-cell co-incubation with EL4 or EG7-OVA cells, and Thrb (UniProt P00734+P04187); experiment: Cleavage assay with supernatant of transgenic T-cell killing assay as GzmB source, plus Thrb; format: cell-based, mice; details: nanoparticle-conjugated sensor 1 μM; 10% supernatant from EL4 and EG7-OVA co-incubation and/or 3.7 Thrb; 12 hours; FIG. 17
T3 construct: using the supernatant as a GzmB source and adding Thrb; endogenous in cells; host or cells: T cells from OT1 mice co-incubated with EL4 or EG7-OVA cells; supernatant used at 10%
T3 sequence (P04187 21-247, one chain of several): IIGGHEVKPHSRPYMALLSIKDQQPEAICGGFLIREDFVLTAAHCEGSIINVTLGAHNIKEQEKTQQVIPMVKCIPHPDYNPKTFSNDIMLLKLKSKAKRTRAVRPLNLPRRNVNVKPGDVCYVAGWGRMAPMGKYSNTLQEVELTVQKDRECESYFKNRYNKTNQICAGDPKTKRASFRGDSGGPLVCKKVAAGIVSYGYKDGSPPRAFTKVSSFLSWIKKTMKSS
Method: FIGS. 15-17 show an example of the disclosed AND-gate protease activity sensors used with a living system. The sensors were evaluated in an in vitro transgenic T-cell killing assay in which cytotoxic T-cells taken from OT1 mice were co-incubated with target cells EL4 and EG7-OVA (FIG. 15). OT1 T cells can recognize the OVA antigen and mount an immune response, so the T-cells would theoretically respond to the EG7-OVA cells but not to the EL4 cells. Supernatant was harvested from the co-incubation and quantified the immune response by GzmB secretion using ELISA (FIG. 16). The concentration was measured after overnight co-incubation at 37° C. with target cells, as measured by ELISA, n=3. It was confirmed that co-incubation of OT1 cells with EG7-OVA cells, but not with EL4 cells, increases GzmB secretion by OT1 cells.
Then we cleavage assays were run with the AND-gate sensors, using the supernatant as a GzmB source and adding Thrb. […] Data for EL4 and EG7-OVA were normalized by subtraction of trace using OT1-only supernatant, and data for EL4+Thrb and EG7-OVA+Thrb were normalized by subtraction of trace using OT1-only supernatant and Thrb.

Substance	signal with GzmB and Tobacco Etch Virus protease compared to MMP8 [1]	change of fluorescent signal on addition of GzmB to MMPs (GzmB and MMPs)	signal with GzmB and West Nile Virus NS3 protease compared to MMP8 (GzmB)	sensitivity of fluorescence to protease concentration (GzmB and Thrb; 9.2 nM Thrb with 0-150 nM GzmB, or 300 nM GzmB with 0-4.6 nM Thrb, 2 hours, FIGS. 13-14)	fluorescent signal, both proteases present together (GzmB and Thrb; nanoparticle-conjugated sensor 1 μM, 125 nM GzmB and 3.7 nM Thrb, 12 hours, FIG. 12)	fluorescent signal, either protease present alone (GzmB and Thrb; nanoparticle-conjugated sensor 1 μM, 125 nM GzmB or 3.7 nM Thrb, 12 hours, FIG. 12)	signal (mean change in fluorescence) with T-cell co-incubation supernatant [2]
GzmB/MMP AND-gate sensor: AND-gate protease activity sensor (SEQ ID NO: 2) that probes both GzmB and MMPs (CGIEFDSGGKGAPAALRAAGGCK; MOD_RES (11)..(11) D-Gly)	low signals	drastically increased the fluorescent signal by over two-fold	low signals				
GzmB/Thrb AND-gate sensor: Disulfide-cyclized peptide (SEQ ID NO: 1) with DABCYL quencher, 5-FAM reporter, GzmB and Thrb substrates and an azide for click conjugation (KCGIEFDSGGKGG[dF]PRSGGGCK; disulfide 2-21 (inferred); also: DABCYL quencher, 5-FAM reporter, azide for click conjugation)				very sensitive to small changes in the concentration of both proteases even in the nanomolar range	high fluorescent signal	not when either protease is present alone	high signal was attained only when Thrb was added to the GzmB-high OT1/EG7-OVA supernatant
